Experimental data: patent US20250163066A1, “PROTACs of MALT1” (TEGID THERAPEUTICS, INC., priority 2022, published 2025)

What was measured:
[1] = tested on: IL-2 MALT1-dependent release in Jurkat cells; test: cells; assay type: cell-based; settings: Homo sapiens; Jurkat cells stimulated with antiCD3/antiCD28 for 24 h; IL-2 ELISA; read-out: EC50, IL-2 MALT1-dependent release inhibition
Procedure: Jurkat cells (ATCC, USA) (100,000 cells/well in a 96 well flat-bottom plate (Greiner, #655061) were cultured in RPMI 1640 supplemented with 10% FBS at 37° C., 5% CO2 in a humidified cell culture incubator for 0.5-1 h. Then 10 μl/well 15× compound (or DMSO) was added in duplicates. Cells were incubated with compound in a humidified cell culture incubator for 0.5-1 h. After the incubation, 10 μl/well of 15× human antiCD3 HIT3a antibody (BioLegend) together with 10 μl/well of 15× human antiCD28 antibody (Invitrogen) were added to stimulate Jurkat cells for 24 h. After 24 h of stimulation, supernatants were collected and IL-2 levels in supernatants were assessed using IL-2 ELISA kit (Vector-Best, Russia).

[2] = molecular target: MALT1 (Homo sapiens (Human), UniProt Q9UDY8); test: MALT1 enzymatic activity inhibition (fluorescence, Ac-LRSR-AMC substrate); assay type: biochemical; settings: recombinant MALT1 1.5 ng/μl, Ac-LRSR-AMC 1 μM
Method in brief: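 Recombinant human MALT1 (1.5 ng/μl final) preincubated 10 min at rt with compounds in 50 mM HEPES pH 7.2-7.4, 100 mM NaCl, 900 mM sodium citrate, 10 mM DTT; 1 μM Ac-LRSR-AMC then added. AMC fluorescence read at start and after 30 min 37 °C plus 30 min rt; difference gives signal, % inhibition fitted to IC50.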

Sequence of MALT1 (Q9UDY8 whole entry): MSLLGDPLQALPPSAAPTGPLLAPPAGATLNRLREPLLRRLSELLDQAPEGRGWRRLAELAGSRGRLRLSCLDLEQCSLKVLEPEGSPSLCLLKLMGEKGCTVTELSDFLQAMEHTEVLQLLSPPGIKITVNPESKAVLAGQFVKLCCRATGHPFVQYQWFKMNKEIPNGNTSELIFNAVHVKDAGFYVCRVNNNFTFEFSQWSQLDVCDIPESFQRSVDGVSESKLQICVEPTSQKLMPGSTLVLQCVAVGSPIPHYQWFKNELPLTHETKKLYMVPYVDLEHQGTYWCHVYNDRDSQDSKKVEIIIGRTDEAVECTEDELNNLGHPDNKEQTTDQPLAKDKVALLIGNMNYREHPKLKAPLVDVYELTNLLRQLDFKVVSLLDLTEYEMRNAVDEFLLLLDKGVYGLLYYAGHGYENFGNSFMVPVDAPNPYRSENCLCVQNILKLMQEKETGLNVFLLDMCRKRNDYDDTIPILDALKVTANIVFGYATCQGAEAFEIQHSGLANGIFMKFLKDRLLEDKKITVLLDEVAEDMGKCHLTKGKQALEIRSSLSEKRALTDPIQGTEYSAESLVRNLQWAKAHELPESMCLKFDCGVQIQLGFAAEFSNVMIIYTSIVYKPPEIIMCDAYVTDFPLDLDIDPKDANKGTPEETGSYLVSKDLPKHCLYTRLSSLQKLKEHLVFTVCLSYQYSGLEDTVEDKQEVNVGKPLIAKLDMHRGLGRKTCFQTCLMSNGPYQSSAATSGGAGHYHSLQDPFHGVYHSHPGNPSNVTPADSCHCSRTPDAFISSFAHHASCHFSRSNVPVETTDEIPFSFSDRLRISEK

EC50 [1] [nM] | EC50 [2] [µM] | Compound
< 500 | ≤ 0.2 | O=C1CCC(N2Cc3cc(N4CCN(C(=O)CCCCCc5nc(-c6ncc(NC(=O)Nc7cnc8ccnn8c7C7CCCC7)cc6Cl)no5)CC4)ccc3C2=O)C(=O)N1 (stereo not shown) [Compound 3, 1-[5-chloro-6-[5-[6-[4-[2-(2,6-dioxo-3-piperidyl)-1-oxo-isoindolin-5-yl]piperazin-1-yl]-6-oxo-hexyl]-1,2,4-oxadiazol-3-yl]-3-pyridyl]-3-(7-cyclopentylpyrazolo[1,5-a]pyrimidin-6-yl)urea]
500 to 1000 | 0.2 to 0.5 | Cc1cc(NC(=O)Nc2cnc3ccnn3c2C2CCCC2)cnc1-c1noc(CC(C)(C)CC(=O)N2CCN(c3ccc4c(c3)CN(C3CCC(=O)NC3=O)C4=O)CC2)n1 (stereo not shown) [Compound 10, 1-(7-cyclopentylpyrazolo[1,5-a]pyrimidin-6-yl)-3-[6-[5-[4-[4-[2-(2,6-dioxo-3-piperidyl)-1-oxo-isoindolin-5-yl]piperazin-1-yl]-2,2-dimethyl-4-oxo-butyl]-1,2,4-oxadiazol-3-yl]-5-methyl-3-pyridyl]urea]
1000 to 5000 | ≤ 0.2 | Cc1cc(NC(=O)Nc2cnc3ccnn3c2C2CCCC2)cnc1-c1noc(CCCC(=O)N2CCN(c3ccc4c(c3)CN(C3CCC(=O)NC3=O)C4=O)CC2)n1 (stereo not shown) [Compound 12, 1-(7-cyclopentylpyrazolo[1,5-a]pyrimidin-6-yl)-3-[6-[5-[4-[4-[2-(2,6-dioxo-3-piperidyl)-1-oxo-isoindolin-5-yl]piperazin-1-yl]-4-oxo-butyl]-1,2,4-oxadiazol-3-yl]-5-methyl-3-pyridyl]urea]
> 5000 | ≤ 0.2 | Cc1cc(NC(=O)Nc2cnc3ccnn3c2C2CCCC2)cnc1-c1noc(CCC(=O)N2CCN(c3ccc4c(c3)CN(C3CCC(=O)NC3=O)C4=O)CC2)n1 (stereo not shown) [Compound 13, 1-(7-cyclopentylpyrazolo[1,5-a]pyrimidin-6-yl)-3-[6-[5-[3-[4-[2-(2,6-dioxo-3-piperidyl)-1-oxo-isoindolin-5-yl]piperazin-1-yl]-3-oxo-propyl]-1,2,4-oxadiazol-3-yl]-5-methyl-3-pyridyl]urea]
1000 to 5000 | ≤ 0.2 | Cc1cc(NC(=O)Nc2cnc3ccnn3c2C2CCCC2)cnc1-c1noc(CCCCC(=O)N2CCN(c3ccc4c(c3)CN(C3CCC(=O)NC3=O)C4=O)CC2)n1 (stereo not shown) [Compound 14, 1-(7-cyclopentylpyrazolo[1,5-a]pyrimidin-6-yl)-3-[6-[5-[5-[4-[2-(2,6-dioxo-3-piperidyl)-1-oxo-isoindolin-5-yl]piperazin-1-yl]-5-oxo-pentyl]-1,2,4-oxadiazol-3-yl]-5-methyl-3-pyridyl]urea]
1000 to 5000 | 0.2 to 0.5 | Cc1cc(NC(=O)Nc2cnc3ccnn3c2C2CCCC2)cnc1-c1noc(CCOCCN2CCN(c3ccc4c(c3)CN(C3CCC(=O)NC3=O)C4=O)CC2)n1 (stereo not shown) [Compound 16, 1-(7-cyclopentylpyrazolo[1,5-a]pyrimidin-6-yl)-3-[6-[5-[2-[2-[4-[2-(2,6-dioxo-3-piperidyl)-1-oxo-isoindolin-5-yl]piperazin-1-yl]ethoxy]ethyl]-1,2,4-oxadiazol-3-yl]-5-methyl-3-pyridyl]urea]
< 500 | ≤ 0.2 | Cc1cc(NC(=O)Nc2cnc3ccnn3c2C2CCCC2)cnc1-c1noc(CCCCCN2CCN(c3ccc4c(c3)CN(C3CCC(=O)NC3=O)C4=O)CC2)n1 (stereo not shown) [Compound 17, 1-(7-cyclopentylpyrazolo[1,5-a]pyrimidin-6-yl)-3-[6-[5-[5-[4-[2-(2,6-dioxo-3-piperidyl)-1-oxo-isoindolin-5-yl]piperazin-1-yl]pentyl]-1,2,4-oxadiazol-3-yl]-5-methyl-3-pyridyl]urea]
< 500 | ≤ 0.2 | Cc1cc(NC(=O)Nc2cnc3ccnn3c2C2CCCC2)cnc1-c1noc(CCCN2CCN(c3ccc4c(c3)CN(C3CCC(=O)NC3=O)C4=O)CC2)n1 (stereo not shown) [Compound 18, 1-(7-cyclopentylpyrazolo[1,5-a]pyrimidin-6-yl)-3-[6-[5-[3-[4-[2-(2,6-dioxo-3-piperidyl)-1-oxo-isoindolin-5-yl]piperazin-1-yl]propyl]-1,2,4-oxadiazol-3-yl]-5-methyl-3-pyridyl]urea]
< 500 | 0.2 to 0.5 | Cc1cc(NC(=O)Nc2cnc3ccnn3c2C2CCCC2)cnc1-c1noc(CCCN2CCN(c3cc4c(cc3F)C(=O)N(C3CCC(=O)NC3=O)C4=O)CC2)n1 (stereo not shown) [Compound 23, 1-(7-cyclopentylpyrazolo[1,5-a]pyrimidin-6-yl)-3-[6-[5-[3-[4-[2-(2,6-dioxo-3-piperidyl)-6-fluoro-1,3-dioxo-isoindolin-5-yl]piperazin-1-yl]propyl]-1,2,4-oxadiazol-3-yl]-5-methyl-3-pyridyl]urea]
1000 to 5000 | 0.5 to 1 | O=C(CCOCCN1CCN(c2ccc3c(c2)CN(C2CCC(=O)NC2=O)C3=O)CC1)NCCOc1ncc(Cl)cc1NC(=O)Nc1cnc2ccnn2c1C1CCCC1 (stereo not shown) [Compound 37, N-[2-[[5-chloro-3-[(7-cyclopentylpyrazolo[1,5-a]pyrimidin-6-yl)carbamoylamino]-2-pyridyl]oxy]ethyl]-3-[2-[4-[2-(2,6-dioxo-3-piperidyl)-1-oxo-isoindolin-5-yl]piperazin-1-yl]ethoxy]propanamide]
1000 to 5000 | 0.2 to 0.5 | O=C(CCOCCOCCN1CCN(c2ccc3c(c2)CN(C2CCC(=O)NC2=O)C3=O)CC1)NCCOc1ncc(Cl)cc1NC(=O)Nc1cnc2ccnn2c1C1CCCC1 (stereo not shown) [Compound 38, N-[2-[[5-chloro-3-[(7-cyclopentylpyrazolo[1,5-a]pyrimidin-6-yl)carbamoylamino]-2-pyridyl]oxy]ethyl]-3-[2-[2-[4-[2-(2,6-dioxo-3-piperidyl)-1-oxo-isoindolin-5-yl]piperazin-1-yl]ethoxy]ethoxy]propanamide]
> 5000 | 1 to 5 | Cc1cc(NC(=O)Nc2cnc3ccnn3c2C2CCCC2)cnc1N1CCN(c2ccc3c(c2)CN(C2CCC(=O)NC2=O)C3=O)CC1 (stereo not shown) [Compound 54, 1-(7-cyclopentylpyrazolo[1,5-a]pyrimidin-6-yl)-3-[6-[4-[2-(2,6-dioxo-3-piperidyl)-1-oxo-isoindolin-5-yl]piperazin-1-yl]-5-methyl-3-pyridyl]urea]
500 to 1000 | ≤ 0.2 | Cc1cc(NC(=O)Nc2cnc3ccnn3c2C2CCCC2)cnc1-c1noc(CCCCCN2CCN(c3cc4c(cc3F)C(=O)N(C3CCC(=O)NC3=O)C4=O)CC2)n1 (stereo not shown) [Compound 55, 1-(7-cyclopentylpyrazolo[1,5-a]pyrimidin-6-yl)-3-[6-[5-[5-[4-[2-(2,6-dioxo-3-piperidyl)-6-fluoro-1,3-dioxo-isoindolin-5-yl]piperazin-1-yl]pentyl]-1,2,4-oxadiazol-3-yl]-5-methyl-3-pyridyl]urea]
– | ≤ 0.2 | CC(C)c1c(NC(=O)Nc2cnc(-c3noc(CCCCCC(=O)N4CCN(c5ccc6c(c5)CN(C5CCC(=O)NC5=O)C6=O)CC4)n3)c(C(F)(F)F)c2)cnc2ccnn12 (stereo not shown) [Compound 162, 1-[6-[5-[6-[4-[2-(2,6-dioxo-3-piperidyl)-1-oxo-isoindolin-5-yl]piperazin-1-yl]-6-oxo-hexyl]-1,2,4-oxadiazol-3-yl]-5-(trifluoromethyl)-3-pyridyl]-3-(7-isopropylpyrazolo[1,5-a]pyrimidin-6-yl)urea]
– | > 5 | Cc1nn(CCCCC(=O)N2CCN(c3ccc4c(c3)CN(C3CCC(=O)NC3=O)C4=O)CC2)cc1NC(=O)Nc1cnc2ccnn2c1C(C)C (stereo not shown) [Compound 164, 1-[1-[5-[4-[2-(2,6-dioxo-3-piperidyl)-1-oxo-isoindolin-5-yl]piperazin-1-yl]-5-oxo-pentyl]-3-methyl-pyrazol-4-yl]-3-(7-isopropylpyrazolo[1,5-a]pyrimidin-6-yl)urea]
– | ≤ 0.2 | O=C1CCC(N2Cc3cc(N4CCN(C(=O)CCCc5nc(-c6ncc(NC(=O)Nc7cnc8ccnn8c7C7CC7)cc6Cl)no5)CC4)ccc3C2=O)C(=O)N1 (stereo not shown) [Compound 165, 1-[5-chloro-6-[5-[4-[4-[2-(2,6-dioxo-3-piperidyl)-1-oxo-isoindolin-5-yl]piperazin-1-yl]-4-oxo-butyl]-1,2,4-oxadiazol-3-yl]-3-pyridyl]-3-(7-cyclopropylpyrazolo[1,5-a]pyrimidin-6-yl)urea]
– | ≤ 0.2 | O=C1CCC(N2Cc3cc(N4CCN(CCCCc5nc(-c6ncc(NC(=O)Nc7cnc8ccnn8c7C7CC7)cc6Cl)no5)CC4)ccc3C2=O)C(=O)N1 (stereo not shown) [Compound 166, 1-[5-chloro-6-[5-[4-[4-[2-(2,6-dioxo-3-piperidyl)-1-oxo-isoindolin-5-yl]piperazin-1-yl]butyl]-1,2,4-oxadiazol-3-yl]-3-pyridyl]-3-(7-cyclopropylpyrazolo[1,5-a]pyrimidin-6-yl)urea]
– | ≤ 0.2 | Cc1cc(NC(=O)Nc2cnc3ccnn3c2C2CC2)cnc1-c1noc(CCCCC(=O)N2CCN(c3ccc4c(c3)CN(C3CCC(=O)NC3=O)C4=O)CC2)n1 (stereo not shown) [Compound 169, 1-(7-cyclopropylpyrazolo[1,5-a]pyrimidin-6-yl)-3-[6-[5-[5-[4-[2-(2,6-dioxo-3-piperidyl)-1-oxo-isoindolin-5-yl]piperazin-1-yl]-5-oxo-pentyl]-1,2,4-oxadiazol-3-yl]-5-methyl-3-pyridyl]urea]
